Consider five molecules from patent US20230095276A1, “ESTERS OF A RETINOID AND A TOCOPHEROL OR TERT-BUTYLHYDROQUINONE AND PREPARATIONS THEREOF” (Conagen Inc., priority 2021, published 2023).

Common to all, as to type: cell-based
In test [1] the target is T1, RAR alpha (Homo sapiens, UniProt P10276).
T1 sequence (P10276 183-417 limits assumed): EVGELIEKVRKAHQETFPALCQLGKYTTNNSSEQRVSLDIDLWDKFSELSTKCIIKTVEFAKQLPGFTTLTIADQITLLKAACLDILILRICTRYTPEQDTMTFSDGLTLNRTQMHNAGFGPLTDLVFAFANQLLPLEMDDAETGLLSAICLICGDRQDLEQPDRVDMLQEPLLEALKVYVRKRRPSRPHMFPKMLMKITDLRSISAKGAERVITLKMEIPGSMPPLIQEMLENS
Nature of the test: RAR alpha agonist reporter cell assay (Gal4 DBD receptor hybrid, luciferase). As to conditions: for Fold Activation: 23 hours, vs DMSO; for agonist activity towards RAR alpha (in words): summary of Table 1. As to the method: (§1) Reporter Cells (Indigo Biosciences, catalog #IB02201, IB02101, IB00821) were used in the assays. The reporter cells expressed a receptor hybrid in which the native N-terminal DNA binding domain (DBD) had been replaced with that of the yeast Gal4 DBD. The reporter gene, firefly luciferase, is functionally linked to the Gal4 upstream activation sequence (UAS). Receptor assays were performed as follows, Steps 1 to 3.
(§2) Step 1: A suspension of Reporter Cells was prepared in Cell Recovery Medium (CRM: containing charcoal-stripped FBS) and 100 μL of the Reporter Cell suspension was dispensed into each of the wells of a white 96-well assay plate. Step 2: Test and reference compound master stocks were prepared as solutions at 1,000× concentration in DMSO relative to the final treatment concentration. This intermediate stock was subsequently diluted directly into INDIGO Biosciences's Compound Screening Medium (CSM; containing charcoal-stripped FBS) to generate ‘2×-concentration’ treatment media. 100 μL of each prepared treatment medium was dispensed into duplicate assay wells pre-dispensed with a 100 μL suspension of Reporter Cells, thereby achieving the desired final treatment concentrations. The concentration of residual DMSO in all assay wells was 0.1% for the test and reference compounds. Assay plates were incubated at 37° C., 5% CO2 and ˜70% humidity for 23 hours. DMSO control was used to determine background activity. Retinoic acid was used with its EC100 concentration to show 100% activity of each receptor. Retinol served as positive control.
(§3) Step 3: Following the incubation period, treatment media were discarded and 100 μL/well of Luciferase Detection Reagent was added per well to determine receptor activity in terms of relative luminescence units (RLUs). Data processing: Fold activation: [Ave RLU Test Cmpd/Ave RLU DMSO].

Test [2] deals with T2, RAR beta (Homo sapiens, UniProt P10826).
T2 sequence (P10826 183-417 limits assumed): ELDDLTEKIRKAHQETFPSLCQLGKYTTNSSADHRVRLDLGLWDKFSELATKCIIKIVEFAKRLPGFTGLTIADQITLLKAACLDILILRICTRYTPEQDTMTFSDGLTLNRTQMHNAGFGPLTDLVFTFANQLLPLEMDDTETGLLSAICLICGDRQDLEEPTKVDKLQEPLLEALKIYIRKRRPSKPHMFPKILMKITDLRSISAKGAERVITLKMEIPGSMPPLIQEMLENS
Nature of the test: RAR beta agonist reporter cell assay (Gal4 DBD receptor hybrid, luciferase). Particulars: for Fold Activation: 23 hours, vs DMSO; for agonist activity towards RAR beta (in words): summary of Table 1. As for the experimental part: as §1, §2, §3

Test [3] relates to RAR gamma. The test can be described thus: RAR gamma agonist reporter cell assay (Gal4 DBD receptor hybrid, luciferase). Particulars: for Fold Activation: 23 hours, vs DMSO; for agonist activity towards RAR gamma (in words): summary of Table 1. As for the experimental part:
Reporter Cells (Indigo Biosciences, catalog #IB02201, IB02101, IB00821) were used in the assays. The reporter cells expressed a receptor hybrid in which the native N-terminal DNA binding domain (DBD) had been replaced with that of the yeast Gal4 DBD. The reporter gene, firefly luciferase, is functionally linked to the Gal4 upstream activation sequence (UAS). Receptor assays were performed as follows, Steps 1 to 3. Step 1: A suspension of Reporter Cells was prepared in Cell Recovery Medium (CRM: containing charcoal-stripped FBS) and 100 μL of the Reporter Cell suspension was dispensed into each of the wells of a white 96-well assay plate. Step 2: Test and reference compound master stocks were prepared as solutions at 1,000× concentration in DMSO relative to the final treatment concentration. […] The concentration of residual DMSO in all assay wells was 0.1% for the test and reference compounds. Assay plates were incubated at 37° C., 5% CO2 and ˜70% humidity for 23 hours. DMSO control was used to determine background activity. […] Retinol served as positive control. Step 3: Following the incubation period, treatment media were discarded and 100 μL/well of Luciferase Detection Reagent was added per well to determine receptor activity in terms of relative luminescence units (RLUs). Data processing: Fold activation: [Ave RLU Test Cmpd/Ave RLU DMSO].

SMILES strings stand for the structures.

`CC1=C(/C=C/C(C)=C/C=C/C(C)=C/C(=O)Oc2c(C)c(C)c3c(c2C)CCC(C)(CCCC(C)CCCC(C)CCCC(C)C)O3)C(C)(C)CCC1` (racemic) [(±)α-tocopheryl retinoate]: the “Fold Activation” value in test [1] (RAR alpha, 0.01 μM) turned out to be 1.27 fold; in test [1] (RAR alpha, 0.1 μM), 9.14 fold; in test [1] (RAR alpha, 1 μM) it was 552 fold; in test [2] (RAR beta, 0.01 μM), 0.882 fold; in test [2] (RAR beta, 0.1 μM) it was 6.33 fold; in test [2] (RAR beta, 1 μM), 149 fold. Besides, the “Fold Activation” value is 1.79 fold in test [3] (RAR gamma, 0.01 μM); 23.8 fold in test [3] (RAR gamma, 0.1 μM); 365 fold in test [3] (RAR gamma, 1 μM). Besides, the “agonist activity towards RAR alpha (in words)” value in test [1] was “exhibited agonist activity”. Besides, the “agonist activity towards RAR beta (in words)” value in test [2] is recorded as “exhibited agonist activity”. Further, the “agonist activity towards RAR gamma (in words)” value in test [3] is “exhibited agonist activity”.

Turning to `CC1=C(/C=C/C(C)=C/C=C/C(C)=C/C(=O)Oc2ccc(O)c(C(C)(C)C)c2)C(C)(C)CCC1` [3-tert-Butyl-4-hydroxyphenyl retinoate, 3-tert-butyl-4-hydroxyphenyl retinoate], the “activity compared with retinoic acid” value in test [1] (RAR alpha), in test [2] (RAR beta) and in test [3] (RAR gamma) was “comparable activity to retinoic acid” throughout. The “Fold Activation” value is recorded as 1,573 fold in test [1] (RAR alpha, 0.01 μM); 2,768 fold in test [1] (RAR alpha, 0.1 μM); 3,414 fold in test [1] (RAR alpha, 1 μM); 232 fold in test [2] (RAR beta, 0.01 μM); 287 fold in test [2] (RAR beta, 0.1 μM); 331 fold in test [2] (RAR beta, 1 μM). The “Fold Activation” value in test [3] (RAR gamma, 0.01 μM) is recorded as 541 fold; in test [3] (RAR gamma, 0.1 μM), 1,010 fold; in test [3] (RAR gamma, 1 μM), 701 fold. The “activity compared with retinol” value in test [1] (RAR alpha, all tested concentrations) is “higher activity than retinol at all tested concentrations”; in test [2] (RAR beta, all tested concentrations) it was “higher activity than retinol at all tested concentrations”; in test [3] (RAR gamma, all tested concentrations), “higher activity than retinol at all tested concentrations”. Moreover, the “agonist activity towards RAR alpha (in words)” value in test [1] is given as “exhibited agonist activity”. Moreover, the “agonist activity towards RAR beta (in words)” value in test [2] is recorded as “exhibited agonist activity”. Moreover, the “agonist activity towards RAR gamma (in words)” value in test [3] was “exhibited agonist activity”.

As to `CC1=C(/C=C/C(C)=C/C=C/C(C)=C/C(=O)Oc2cc(C)c3c(c2)CC[C@@](C)(CCC[C@H](C)CCC[C@H](C)CCCC(C)C)O3)C(C)(C)CCC1` [(+)δ-Tocopheroyl retinoate, (+)δ-tocopheroyl retinoate], the “Fold Activation” value stood at 0.620 fold in test [1] (RAR alpha, 0.01 μM); 5.25 fold in test [1] (RAR alpha, 0.1 μM); 251 fold in test [1] (RAR alpha, 1 μM); 1.57 fold in test [2] (RAR beta, 0.01 μM); 3.96 fold in test [2] (RAR beta, 0.1 μM); 53.4 fold in test [2] (RAR beta, 1 μM). Further, the “Fold Activation” value is reported as 1.10 fold in test [3] (RAR gamma, 0.01 μM); 8.45 fold in test [3] (RAR gamma, 0.1 μM); 315 fold in test [3] (RAR gamma, 1 μM). Also, the “agonist activity towards RAR alpha (in words)” value in test [1] is recorded as “exhibited agonist activity”. The “agonist activity towards RAR beta (in words)” value in test [2] is given as “exhibited agonist activity”. For the same molecule, the “agonist activity towards RAR gamma (in words)” value in test [3] is given as “exhibited agonist activity”.

As for `CC1=C(/C=C/C(C)=C/C=C/C(C)=C/C(=O)O)C(C)(C)CCC1` [Retinoic acid, reference compound], the “Fold Activation” value in test [3] (RAR gamma, 0.1 μM) was determined as 706 fold.

As to `CC1=C(/C=C/C(C)=C/C=C/C(C)=C/CO)C(C)(C)CCC1` [Retinol, reference compound], the “Fold Activation” value in test [1] (RAR alpha, 0.01 μM) was 1.77 fold; in test [1] (RAR alpha, 0.1 μM), 6.35 fold; in test [1] (RAR alpha, 1 μM), 518 fold; in test [2] (RAR beta, 0.01 μM), 1.63 fold; in test [2] (RAR beta, 0.1 μM), 4.91 fold; in test [2] (RAR beta, 1 μM), 127 fold. The “Fold Activation” value stood at 2.28 fold in test [3] (RAR gamma, 0.01 μM); 18.5 fold in test [3] (RAR gamma, 0.1 μM); 368 fold in test [3] (RAR gamma, 1 μM).
